{"source": "patent US11090308B2", "about": "“Methods of treating liver disorders or lipid disorders with a THR-beta agonist” (Madrigal Pharmaceuticals, Inc., priority 2016, dated 2021)", "key": {"in vitro": {"assay": "in vitro", "type": "in vitro ADME, all species", "conditions": "plasma", "description": "(§1) The following studies have been conducted: (a) in vitro drug protein binding, transporter (organic anion transporting polypeptide [OATP], P-glycoprotein [P-gp], breast cancer-related protein [BCRP], and multiple drug resistance protein 1 [MDR1]), and cytochrome P-450 enzyme assays to investigate absorption, distribution, and excretion; (b) in vivo MGL-3196 rat and dog oral PK and bioavailability studies; (c) in vivo ^14C-MGL-3196 rat and dog oral pharmacokinetics, absorption, excretion, and tissue distribution by quantitative whole-body autoradiography (QWBA) studies; and (d) liver disposition of MGL-3196 using an in vitro sandwiched hepatocyte model system (B-CLEAR® technology) in dog (SCDH) and human (SCHH) hepatocytes."}, "CYP3A4": {"molecular_target": "CYP3A4 (Homo sapiens, UniProt P08684)", "sequence (P08684 2-503 limits assumed)": "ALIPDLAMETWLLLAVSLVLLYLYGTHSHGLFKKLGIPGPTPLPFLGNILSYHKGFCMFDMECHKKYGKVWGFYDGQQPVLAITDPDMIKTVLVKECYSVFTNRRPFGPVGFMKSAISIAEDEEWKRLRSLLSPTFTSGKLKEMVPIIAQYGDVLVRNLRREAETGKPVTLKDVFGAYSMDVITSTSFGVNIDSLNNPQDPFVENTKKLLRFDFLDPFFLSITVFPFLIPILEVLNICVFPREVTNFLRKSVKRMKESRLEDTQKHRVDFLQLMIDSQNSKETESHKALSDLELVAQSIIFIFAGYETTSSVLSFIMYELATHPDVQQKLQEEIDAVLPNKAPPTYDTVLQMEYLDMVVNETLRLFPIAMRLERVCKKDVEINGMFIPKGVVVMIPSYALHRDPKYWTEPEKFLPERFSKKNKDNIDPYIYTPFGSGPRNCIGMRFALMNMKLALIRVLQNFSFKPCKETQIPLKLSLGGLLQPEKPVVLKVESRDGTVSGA", "assay": "In vitro Cytochrome P-450 enzyme assay, CYP3A4", "type": "in vitro ADME", "description": "as §1"}, "OAT3": {"molecular_target": "T1, OAT3 (Homo sapiens, UniProt Q8TCC7)", "T1 sequence (Q8TCC7 1-542)": "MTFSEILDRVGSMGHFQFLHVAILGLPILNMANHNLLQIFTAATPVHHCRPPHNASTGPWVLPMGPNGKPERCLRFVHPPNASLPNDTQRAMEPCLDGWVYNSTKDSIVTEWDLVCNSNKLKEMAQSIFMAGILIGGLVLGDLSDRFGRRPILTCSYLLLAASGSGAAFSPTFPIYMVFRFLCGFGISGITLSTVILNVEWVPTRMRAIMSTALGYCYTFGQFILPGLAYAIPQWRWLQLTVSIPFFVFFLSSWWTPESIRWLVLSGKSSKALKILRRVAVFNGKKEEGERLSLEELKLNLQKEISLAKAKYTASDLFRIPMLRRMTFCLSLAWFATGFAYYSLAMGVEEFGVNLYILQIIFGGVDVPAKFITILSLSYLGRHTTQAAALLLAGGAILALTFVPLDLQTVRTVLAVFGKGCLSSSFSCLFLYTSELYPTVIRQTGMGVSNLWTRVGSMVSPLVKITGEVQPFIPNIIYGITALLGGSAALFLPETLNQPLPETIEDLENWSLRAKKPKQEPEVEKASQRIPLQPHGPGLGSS", "assay": "In vitro drug transporter assay, OAT3", "type": "in vitro ADME", "conditions": "read-out: Inhibitor of: OAT3, IC50"}, "MDR1 (P-gp)": {"molecular_target": "MDR1 (P-gp) (Homo sapiens, UniProt P08183)", "sequence (P08183 whole entry, species assumed)": "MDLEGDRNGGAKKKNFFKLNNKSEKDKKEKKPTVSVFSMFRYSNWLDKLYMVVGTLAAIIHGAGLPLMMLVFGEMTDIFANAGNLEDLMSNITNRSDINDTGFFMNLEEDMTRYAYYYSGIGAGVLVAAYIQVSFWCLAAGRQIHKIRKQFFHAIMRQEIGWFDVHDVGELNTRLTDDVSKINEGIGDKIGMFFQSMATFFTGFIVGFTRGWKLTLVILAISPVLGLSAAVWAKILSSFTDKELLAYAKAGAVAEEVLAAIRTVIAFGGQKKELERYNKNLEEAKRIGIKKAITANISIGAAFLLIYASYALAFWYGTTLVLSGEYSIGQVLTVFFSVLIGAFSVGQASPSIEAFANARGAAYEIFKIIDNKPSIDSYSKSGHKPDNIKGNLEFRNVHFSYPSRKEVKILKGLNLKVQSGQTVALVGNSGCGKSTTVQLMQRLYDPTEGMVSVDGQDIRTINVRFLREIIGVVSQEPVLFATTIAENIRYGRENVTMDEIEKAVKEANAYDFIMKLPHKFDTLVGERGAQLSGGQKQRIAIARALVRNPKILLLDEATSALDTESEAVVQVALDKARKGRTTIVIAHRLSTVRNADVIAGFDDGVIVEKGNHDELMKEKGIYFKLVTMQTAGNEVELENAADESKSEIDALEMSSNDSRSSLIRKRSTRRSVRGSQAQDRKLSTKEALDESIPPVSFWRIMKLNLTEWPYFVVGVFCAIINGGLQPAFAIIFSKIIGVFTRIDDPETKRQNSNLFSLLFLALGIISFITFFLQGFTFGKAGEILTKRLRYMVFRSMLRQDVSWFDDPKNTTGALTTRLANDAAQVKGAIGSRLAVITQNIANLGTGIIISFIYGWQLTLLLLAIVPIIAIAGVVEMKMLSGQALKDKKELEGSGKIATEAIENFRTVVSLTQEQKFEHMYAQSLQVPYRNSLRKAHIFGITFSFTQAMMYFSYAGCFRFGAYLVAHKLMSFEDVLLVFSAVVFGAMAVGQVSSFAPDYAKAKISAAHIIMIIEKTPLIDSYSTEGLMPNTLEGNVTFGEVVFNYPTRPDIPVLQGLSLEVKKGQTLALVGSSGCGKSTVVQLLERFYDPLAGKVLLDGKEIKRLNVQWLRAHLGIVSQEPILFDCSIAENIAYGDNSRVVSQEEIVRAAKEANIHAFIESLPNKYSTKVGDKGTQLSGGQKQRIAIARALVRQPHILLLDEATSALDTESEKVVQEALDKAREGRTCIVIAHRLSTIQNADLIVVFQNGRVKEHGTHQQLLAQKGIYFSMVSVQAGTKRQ", "assay": "In vitro drug transporter assay, MDR1 (P-gp)", "type": "in vitro ADME", "description": "as §1"}, "MRP2": {"molecular_target": "MRP2 (Homo sapiens, UniProt Q92887)", "sequence (Q92887 whole entry, species assumed)": "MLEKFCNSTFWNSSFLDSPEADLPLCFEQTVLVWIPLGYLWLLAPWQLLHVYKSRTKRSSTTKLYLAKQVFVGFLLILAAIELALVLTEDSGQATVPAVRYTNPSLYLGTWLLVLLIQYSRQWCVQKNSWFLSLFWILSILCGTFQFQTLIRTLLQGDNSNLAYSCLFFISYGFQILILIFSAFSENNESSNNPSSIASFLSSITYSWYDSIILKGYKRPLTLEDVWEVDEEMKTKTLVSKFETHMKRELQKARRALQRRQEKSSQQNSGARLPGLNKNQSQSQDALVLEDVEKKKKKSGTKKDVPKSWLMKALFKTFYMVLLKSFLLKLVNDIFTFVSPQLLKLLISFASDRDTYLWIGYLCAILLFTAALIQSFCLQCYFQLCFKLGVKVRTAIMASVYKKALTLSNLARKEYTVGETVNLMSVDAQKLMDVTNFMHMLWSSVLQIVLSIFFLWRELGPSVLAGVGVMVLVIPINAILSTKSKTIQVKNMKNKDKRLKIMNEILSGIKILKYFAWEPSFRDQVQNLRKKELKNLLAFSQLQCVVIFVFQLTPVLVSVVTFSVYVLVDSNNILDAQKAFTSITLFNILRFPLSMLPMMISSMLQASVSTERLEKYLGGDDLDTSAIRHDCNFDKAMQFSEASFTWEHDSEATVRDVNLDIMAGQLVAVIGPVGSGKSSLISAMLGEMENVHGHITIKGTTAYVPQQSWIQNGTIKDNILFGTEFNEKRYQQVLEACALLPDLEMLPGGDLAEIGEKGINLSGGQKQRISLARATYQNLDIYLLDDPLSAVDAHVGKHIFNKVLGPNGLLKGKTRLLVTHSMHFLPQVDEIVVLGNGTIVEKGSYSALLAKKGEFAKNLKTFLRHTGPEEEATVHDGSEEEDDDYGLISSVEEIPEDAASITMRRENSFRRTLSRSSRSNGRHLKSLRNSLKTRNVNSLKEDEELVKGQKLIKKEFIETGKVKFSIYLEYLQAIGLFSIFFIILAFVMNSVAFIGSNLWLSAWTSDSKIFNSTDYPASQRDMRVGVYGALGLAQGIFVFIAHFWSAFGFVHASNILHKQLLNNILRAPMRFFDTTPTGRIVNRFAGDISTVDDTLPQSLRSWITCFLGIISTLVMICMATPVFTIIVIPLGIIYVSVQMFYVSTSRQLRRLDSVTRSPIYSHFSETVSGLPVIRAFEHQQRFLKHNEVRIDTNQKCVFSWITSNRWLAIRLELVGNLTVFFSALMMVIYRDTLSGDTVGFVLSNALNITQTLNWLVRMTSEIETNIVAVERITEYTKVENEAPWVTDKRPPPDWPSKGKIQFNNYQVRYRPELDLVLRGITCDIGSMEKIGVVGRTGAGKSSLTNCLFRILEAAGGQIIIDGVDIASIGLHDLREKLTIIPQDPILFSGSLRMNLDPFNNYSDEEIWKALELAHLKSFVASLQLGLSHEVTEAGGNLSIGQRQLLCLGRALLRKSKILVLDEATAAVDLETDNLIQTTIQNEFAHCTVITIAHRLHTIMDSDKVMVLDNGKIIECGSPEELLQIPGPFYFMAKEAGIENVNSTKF", "assay": "In vitro drug transporter assay, MRP2", "type": "in vitro ADME"}, "OCT2": {"molecular_target": "T2, OCT2 (Homo sapiens, UniProt O15244)", "T2 sequence (O15244 1-555)": "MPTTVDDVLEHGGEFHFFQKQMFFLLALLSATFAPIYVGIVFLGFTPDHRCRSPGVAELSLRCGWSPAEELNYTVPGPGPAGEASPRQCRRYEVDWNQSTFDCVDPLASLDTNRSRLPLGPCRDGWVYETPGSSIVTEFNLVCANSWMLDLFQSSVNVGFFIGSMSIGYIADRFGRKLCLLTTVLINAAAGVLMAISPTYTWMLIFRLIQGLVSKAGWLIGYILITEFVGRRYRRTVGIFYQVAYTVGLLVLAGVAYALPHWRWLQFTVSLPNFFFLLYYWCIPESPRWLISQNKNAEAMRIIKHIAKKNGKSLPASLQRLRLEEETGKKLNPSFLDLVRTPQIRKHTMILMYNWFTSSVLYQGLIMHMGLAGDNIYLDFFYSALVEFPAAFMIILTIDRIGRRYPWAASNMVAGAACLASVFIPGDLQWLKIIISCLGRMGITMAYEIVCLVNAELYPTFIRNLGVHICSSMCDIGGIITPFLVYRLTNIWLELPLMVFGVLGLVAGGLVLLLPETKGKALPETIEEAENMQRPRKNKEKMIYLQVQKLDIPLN", "assay": "In vitro drug transporter assay, OCT2", "type": "in vitro ADME"}, "[1]": {"assay": "Rat oral PK and bioavailability studies", "type": "in vivo", "description": "as §1\nRat & Dog PK/Bioavailability Studies were also performed."}}, "note": "pIC50: −log10 of the molar value.", "data": [{"smiles": "CC(C)c1cc(Oc2c(Cl)cc(-n3nc(C#N)c(=O)[nH]c3=O)cc2Cl)n[nH]c1=O", "note": "[MGL-3196, 2-(3,5-dichloro-4-((5-isopropyl-6-oxo-1,6-dihydropyridazin-3-yl)oxy)phenyl)-3,5-dioxo-2,3,4,5-tetrahydro-1,2,4-triazine-6-carbonitrile]", "values": [{"measurement": "fraction unbound", "setting": "in vitro", "value": "< 0.01"}, {"measurement": "Inhibitor of: CYP3A4", "setting": "CYP3A4", "value": "CYP3A4 (weak inhibitor)"}, {"measurement": "pIC50", "setting": "OAT3", "value": 5.35}, {"measurement": "Inhibitor of: MDR1", "setting": "MDR1 (P-gp)", "value": "not an inhibitor"}, {"measurement": "Substrate for: MDR1 (P-gp)", "setting": "MDR1 (P-gp)", "value": "weak substrate"}, {"measurement": "Inhibitor of: MRP2", "setting": "MRP2", "value": "not an inhibitor"}, {"measurement": "Substrate for: MRP2", "setting": "MRP2", "value": "not a substrate"}, {"measurement": "Inhibitor of: OCT2", "setting": "OCT2", "value": "not an inhibitor"}, {"measurement": "bioavailability", "setting": "[1]; rat, plasma, po", "value": "45 to 98", "unit": "%"}, {"measurement": "half-life", "setting": "[1]; rat, plasma, rats, oral dosing, read-out: mean elimination half-life", "value": "2.5 to 7", "unit": "h"}, {"measurement": "time of maximum plasma concentrations", "setting": "[1]; rats, oral dosing", "value": "2 to 6", "unit": "h"}]}]}
